What follows are molecules tested against Tyrosinase (Agaricus bisporus) (assay: Inhibition of Tyrosinase).

Compound | IC50 [nM]
OC[C@H]1O[C@@H](Oc2ccc(CCc3ccc(O)cc3O)c(O)c2)[C@H](O)[C@@H](O)[C@@H]1O | 770
OC[C@H]1O[C@@H](O[C@H]2[C@H](O)[C@@H](O)[C@H](Oc3ccc(CCc4ccc(O)cc4O)c(O)c3)O[C@@H]2CO)[C@H](O)[C@@H](O)[C@@H]1O | 680
OC[C@H]1O[C@H](O[C@H]2[C@H](O)[C@@H](O)[C@H](Oc3ccc(CCc4ccc(O)cc4O)c(O)c3)O[C@@H]2CO)[C@H](O)[C@@H](O)[C@@H]1O | 830
Oc1ccc(CCc2ccc(O)cc2O[C@@H]2OC[C@@H](O)[C@H](O)[C@H]2O)c(O)c1 | 1600
Oc1ccc(CCc2ccc(O[C@@H]3OC[C@@H](O)[C@H](O)[C@H]3O)cc2O)c(O)c1 | 430

Reference: ChEMBL document CHEMBL1759884, “Synthesis and evaluation of bibenzyl glycosides as potent tyrosinase inhibitors” (Eur J Med Chem, 2011)
